Measured values published in PubChem BioAssay (NCI).
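In this assay, cells in 96-well plates receive the compound at five concentrations for 48 hours. Endpoints are linearly interpolated between the surrounding concentrations. TGI: concentration producing complete growth inhibition.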

Columns and labels:
Experiment in all cases: DTP human tumour cell line panel, 48 h
A498 renal = system: A498 renal
CCRF-CEM leukemia = system: CCRF-CEM leukemia
HOP-62 NSCLC = system: HOP-62 NSCLC
IGROV1 ovarian = system: IGROV1 ovarian
MDA-N = system: MDA-N
PC-3 prostate = system: PC-3 prostate
SK-MEL-28 melanoma = system: SK-MEL-28 melanoma
SK-MEL-5 melanoma = system: SK-MEL-5 melanoma
U251 CNS = system: U251 CNS
UACC-62 melanoma = system: UACC-62 melanoma

SMILES | TGI (A498 renal) | TGI (CCRF-CEM leukemia) | TGI (HOP-62 NSCLC) | TGI (IGROV1 ovarian) | TGI (MDA-N) | TGI (PC-3 prostate) | TGI (SK-MEL-28 melanoma) | TGI (SK-MEL-5 melanoma) | TGI (U251 CNS) | TGI (UACC-62 melanoma)
Cn1c(N/N=C/c2ccc(Cl)cc2)nc(-c2ccc(Cl)cc2)c(C#N)c1=O | 93.5 µM | > 100 µM | 25.1 µM | 25.6 µM | > 100 µM | 90.1 µM | > 100 µM | > 100 µM | 72.1 µM | 48.4 µM
CN(C)CCOc1ccc(-c2c(Oc3ccc(Cl)cc3)c(=O)oc3ccccc23)cc1 | 43 µM | > 29 µM | 87.8 µM | 19.2 µM | 13.5 µM | 30.1 µM |  | 4.55 µM | > 32.9 µM | 32.1 µM
CC1=C(C#N)S(=O)(=O)c2c(oc(C)c2C)N1 | > 100 µM |  | > 100 µM |  | > 100 µM | > 100 µM | > 100 µM | > 100 µM | > 100 µM | > 100 µM
COc1cc2[nH]c(-c3ccccc3)cc(=O)c2cc1OC | > 100 µM | > 65.6 µM | > 100 µM | > 100 µM | 6.44 µM | > 100 µM | > 100 µM | 54.4 µM | > 100 µM | > 89 µM
O=c1[nH]cnc2c1ncn2[C@H]1CO[C@@H](CO)[C@@H]1O | > 100 µM | > 100 µM | > 100 µM | > 100 µM | > 100 µM | > 100 µM | > 100 µM | > 100 µM | > 100 µM | > 100 µM
Brc1ccc2c(c1)C1=C(CO2)Cc2ccccc2O1 | 45.2 µM | > 100 µM | 30.3 µM | 32.7 µM | 27 µM | 32.9 µM |  | 28.2 µM | 36.3 µM | 32.2 µM
CC1(C)N=C(N)N=C(N)N1c1cccc(CSc2ccccc2)c1 | > 100 µM |  | > 100 µM | 25 µM | > 100 µM | > 100 µM | > 100 µM | 13.5 µM | > 100 µM | > 100 µM
Nc1cc(CO)cc(Nc2c3ccccc3nc3occc23)c1 | > 100 µM | > 100 µM | > 100 µM | 90.8 µM | > 100 µM | > 100 µM | 72.4 µM | 58.9 µM | > 100 µM | 86.8 µM
Cn1c2ccccc2n2c3nc4ccccc4nc3c(C#N)c12 | 9.72 µM | > 100 µM | > 100 µM | > 100 µM | > 100 µM | > 100 µM | > 100 µM | > 100 µM | > 100 µM | > 100 µM
CC(=O)Nc1ccc(Nc2nc(=O)[nH]c(=O)[nH]2)cc1 | > 100 µM | > 100 µM | > 100 µM | > 100 µM | > 100 µM | > 100 µM | > 100 µM | > 100 µM | > 100 µM | > 100 µM
O=C(CSC1=NCCN1)c1ccccc1 | > 100 µM |  | > 100 µM | > 100 µM | > 100 µM | > 100 µM | > 100 µM | > 100 µM | > 100 µM | > 100 µM
